Reference: patent US20100099132A1, “BACTERIAL GROWTH INDUCER” (priority 2007, published 2010)

Experiments:
[1] = Stability (heat, lyophilisation, storage, enzymes, pH); format: physicochemical
Description: BuGro™ and the individual activity Peaks 1, 2 and 3 are each stable to 60 minutes boiling when in a heat-stable buffer such as 50 mM Tris-HCl, pH 7.5 or phosphate buffered saline (PBS). All are fully stable to lyophilisation, and if maintained in a lyophilised form, crude BuGro™ is 90-95% stable to storage at 4° C. for at least 2 years.

[2] = system: E. coli; conditions: serum-based media; Table 2, prior art WO 98/53047; cited from earlier work
[3] = system: H. alvei; test: Effect of additions on synthesis of BuGro activity by H. alvei in M9 minimal media; format: cell-based, Hafnia alvei; conditions: added at inoculum stage to H. alvei M9 culture: 5% supernatant (approx. 50 units/ml) or 100 μM norepinephrine; listed as NE
Description: Therefore, H. alvei was inoculated at 2×10^6 CFU/ml into M9 minimal media supplemented with 0.4% (w/v) glucose only (ie no addition, N/A), or with 5% culture supernatant from a previous H. alvei M9 culture (approximately 50 units/ml) (HA), or with 100 μM norepinephrine (NE). The cultures were incubated at 37° C. in a rotatory shaking incubator for 18 hrs (final cell density: 2.17, 2.32 and 2.39×10^8 CFU/ml). Bacteria were removed by centrifugation at 10,000 g for 15 minutes, and the resulting culture supernatant was sterilised by passage through a 0.2 micron stericup filter. The sterile supernatant was assayed at various volumes using test strain E. coli E2348/69 inoculated at 10^2 CFU/ml into serum-SAPI media and incubated statically for 17 hrs at 37° C. in a humidified CO2 incubator. Growth levels were measured using Luria agar and pour plate analysis.

SMILES	stability once synthesised in minimal media such as M9 [1]	effect on Bacxell synthesis [2]	effect on synthesis of BuGro activity [3]
O=C(N[C@H]1COC(=O)[C@@H](NC(=O)c2cccc(O)c2O)COC(=O)[C@@H](NC(=O)c2cccc(O)c2O)COC1=O)c1cccc(O)c1O [enterobactin]	highly unstable		
NC[C@H](O)c1ccc(O)c(O)c1 [norepinephrine]		4. Induced by norepinephrine, but also	not induced
